The values that follow are results of earlier work, collected in patent US7160555B2, “Immediate release medicinal compositions for oral use” (Kissei Pharmaceutical Co., Ltd., priority 1999, dated 2007).

The data set deals with blood sugar. The settings on record: Japanese Patent Laid-Open No. 356459/1992.

Turning to “(2S)-2-benzyl-3-(cis-hexahydro-2-iso-indolinylcarbonyl)propionic acid”, the “lowering action of blood sugar” value was “remarkable lowering action of blood sugar”.
